Where a name gives a salt, the structure may show the parent alone.
Tests used:
Format in all cases: biochemical
[1] = target: PIM-1 (Homo sapiens, UniProt P11309); assay: Enzyme PIM-1 Assay ([33P]ATP incorporation into PIM2tide, filter plate); conditions: averaged IC50; 35 μM ATP, 7.5 μM PIM2tide, 0.25 nM PIM-1, 60 min at 22° C.
How it was run: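 Radiometric assay: 0.25 nM PIM-1 phosphorylates 7.5 μM PIM2tide with 35 μM [γ-33P]ATP in 20 mM MOPS pH 7.4, 10 mM MgCl2, 1 mM DTT, 0.005% Tween-20, 60 min at 22 °C. Product captured on P81 filters, scintillation counted; 10-point 3-fold curve from 10 μM top, 2% DMSO, IC50 by 4-parameter logistic fit of POC.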

[2] = target: T1, GST-tagged recombinant full-length human Pim-2 (Homo sapiens, UniProt Q9P1W9); assay: PIM-2 Assay (as Example A); conditions: averaged IC50; 4 μM ATP, 1.0 μM PIM2tide, 1.5 nM Pim-2
T1 construct: GST-tagged recombinant full-length human Pim-2; GST
How it was run: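 Radiometric filter-binding assay: GST-tagged full-length human Pim-2 (1.5 nM) phosphorylates 1.0 μM PIM2tide with 4 μM [γ-33P]ATP for 60 min at 22 °C in pH 7.4 MOPS buffer, 2% DMSO. 10-point 3-fold dilutions from 10 μM top dose; IC50 from 4-parameter fit of percent of control.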

[3] = target: recombinant rat PIM-3 (Rattus norvegicus, UniProt O70444); assay: PIM-3 Assay (as Example A); conditions: averaged IC50; 30 μM ATP, 3.75 μM PIM2tide, 0.5 nM PIM-3
How it was run: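 Recombinant rat PIM-3 (0.5 nM) with 3.75 μM PIM2tide and 30 μM [γ-33P]ATP in MOPS pH 7.4 buffer, 60 min at 22 °C; labelled peptide captured on phosphocellulose filters and counted by scintillation. 10-point curve (top dose 10 μM, 2% DMSO); IC50 from 4-parameter fit of percent of control.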

PIM-1, sequence (P11309 whole entry, species assumed): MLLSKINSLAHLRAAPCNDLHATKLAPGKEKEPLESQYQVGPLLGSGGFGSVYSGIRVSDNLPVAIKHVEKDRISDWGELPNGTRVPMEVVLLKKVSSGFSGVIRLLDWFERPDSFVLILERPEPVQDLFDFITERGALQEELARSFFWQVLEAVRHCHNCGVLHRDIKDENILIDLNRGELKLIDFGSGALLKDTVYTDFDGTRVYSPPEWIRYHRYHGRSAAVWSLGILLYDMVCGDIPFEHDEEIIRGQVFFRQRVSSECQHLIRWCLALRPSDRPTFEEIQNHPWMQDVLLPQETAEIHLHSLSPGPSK
T1 sequence (Q9P1W9 whole entry): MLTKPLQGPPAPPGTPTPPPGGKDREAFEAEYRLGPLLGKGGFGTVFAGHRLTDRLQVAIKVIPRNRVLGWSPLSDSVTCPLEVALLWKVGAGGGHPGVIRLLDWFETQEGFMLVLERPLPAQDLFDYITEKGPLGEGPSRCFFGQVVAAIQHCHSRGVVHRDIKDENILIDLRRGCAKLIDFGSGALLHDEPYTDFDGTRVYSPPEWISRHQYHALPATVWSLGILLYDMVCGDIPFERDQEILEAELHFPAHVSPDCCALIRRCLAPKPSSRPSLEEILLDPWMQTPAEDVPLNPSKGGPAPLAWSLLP

Structure (SMILES) | IC50 [1] | IC50 [2] | IC50 [3]
COc1ccc2ccc(-c3nnc4ccc([C@@H](N5CC[C@H](N)C5)C(F)(F)F)cn34)nc2c1 [Example 139, (S)-1-((R)-2,2,2-trifluoro-1-(3-(7-methoxyquinolin-2-yl)-[1,2,4]triazolo[4,3-a]pyridin-6-yl)ethyl)pyrrolidin-3-amine dihydrochloride] | 580 pM | > 100000 pM | 4900 pM
COC[C@@H](C)Oc1cccc2ccc(-c3nnc4ccc([C@@H](N5CC[C@H](N)C5)C(F)(F)F)cn34)nc12 [Example 140, (S)-1-((R)-2,2,2-trifluoro-1-(3-(8-((R)-1-methoxypropan-2-yloxy)quinolin-2-yl)-[1,2,4]triazolo[4,3-a]pyridin-6-yl)ethyl)pyrrolidin-3-amine dihydrochloride] | 120 pM | 54000 pM | 500 pM
COC[C@H](C)Oc1cccc2ccc(-c3nnc4ccc([C@@H](N5CC[C@H](N)C5)C(F)(F)F)cn34)nc12 [Example 141, (S)-1-((R)-2,2,2-trifluoro-1-(3-(8-((S)-1-methoxypropan-2-yloxy)quinolin-2-yl)-[1,2,4]triazolo[4,3-a]pyridin-6-yl)ethyl)pyrrolidin-3-amine dihydrochloride] | 200 pM | 90000 pM | 900 pM
CC(C)Oc1ccc2ccc(-c3nnc4ccc([C@@H](N5CC[C@H](N)C5)C(F)(F)F)cn34)nc2c1 [Example 142, (S)-1-((R)-2,2,2-trifluoro-1-(3-(7-isopropoxyquinolin-2-yl)-[1,2,4]triazolo[4,3-a]pyridin-6-yl)ethyl)pyrrolidin-3-amine dihydrochloride] | 90 pM | 44000 pM | 500 pM
COc1ccc2ccc(-c3nnc4ccc([C@@H](N5CC[C@H](N)C5)C(F)(F)F)cn34)nc2c1C1CC1 [Example 143, (S)-1-((R)-1-(3-(8-cyclopropyl-7-methoxyquinolin-2-yl)-[1,2,4]triazolo[4,3-a]pyridin-6-yl)-2,2,2-trifluoroethyl)pyrrolidin-3-amine dihydrochloride] | 90 pM | 38000 pM | 500 pM
CC1Cc2c(ccc3ccc(-c4nnc5ccc([C@@H](N6CC[C@H](N)C6)C(F)(F)F)cn45)nc23)O1 (stereo partly drawn) [Example 144, (3S)-1-((1R)-2,2,2-trifluoro-1-(3-(8-methyl-8,9-dihydrofuro[2,3-h]quinolin-2-yl)-[1,2,4]triazolo[4,3-a]pyridin-6-yl)ethyl)pyrrolidin-3-amine dihydrochloride] | 950 pM | 48000 pM | 1000 pM
CC(C)(C)c1cccc2ccc(-c3nnc4ccc([C@@H](N5C[C@@H](N)[C@H](O)C5)C(F)(F)F)cn34)nc12 [Example 145, (3R,4R)-4-amino-1-((R)-1-(3-(8-tert-butylquinolin-2-yl)-[1,2,4]triazolo[4,3-a]pyridin-6-yl)-2,2,2-trifluoroethyl)pyrrolidin-3-ol dihydrochloride] | 250 pM | 30000 pM | 700 pM
CC(C)Oc1cccc2ccc(-c3nnc4ccc([C@@H](N5C[C@@H](N)[C@H](O)C5)C(F)(F)F)cn34)nc12 [Example 146, (3R,4R)-4-amino-1-((R)-2,2,2-trifluoro-1-(3-(8-isopropoxyquinolin-2-yl)-[1,2,4]triazolo[4,3-a]pyridin-6-yl)ethyl)pyrrolidin-3-ol dihydrochloride] | 130 pM | 34000 pM | 300 pM
CC(C)Oc1cc(F)cc2ccc(-c3nnc4ccc([C@@H](N5C[C@@H](N)[C@H](O)C5)C(F)(F)F)cn34)nc12 [Example 147, (3R,4R)-4-amino-1-((R)-2,2,2-trifluoro-1-(3-(6-fluoro-8-isopropoxyquinolin-2-yl)-[1,2,4]triazolo[4,3-a]pyridin-6-yl)ethyl)pyrrolidin-3-ol dihydrochloride] | 110 pM | 36000 pM | 300 pM
COCCOc1ccc2ccc(-c3nnc4ccc([C@@H](N5CC[C@H](N)C5)C(F)(F)F)cn34)nc2c1 [Example 148, (S)-1-((R)-2,2,2-trifluoro-1-(3-(7-(2-methoxyethoxy)quinolin-2-yl)-[1,2,4]triazolo[4,3-a]pyridin-6-yl)ethyl)pyrrolidin-3-amine dihydrochloride] | 340 pM | > 100000 pM | 1200 pM
COC[C@@H](C)Oc1ccc2ccc(-c3nnc4ccc([C@@H](N5CC[C@H](N)C5)C(F)(F)F)cn34)nc2c1 [Example 149, (S)-1-((R)-2,2,2-trifluoro-1-(3-(7-((R)-1-methoxypropan-2-yloxy)quinolin-2-yl)-[1,2,4]triazolo[4,3-a]pyridin-6-yl)ethyl)pyrrolidin-3-amine dihydrochloride] | 170 pM | > 100000 pM | 700 pM
COC[C@H](C)Oc1ccc2ccc(-c3nnc4ccc([C@@H](N5CC[C@H](N)C5)C(F)(F)F)cn34)nc2c1 [Example 150, (S)-1-((R)-2,2,2-trifluoro-1-(3-(7-((S)-1-methoxypropan-2-yloxy)quinolin-2-yl)-[1,2,4]triazolo[4,3-a]pyridin-6-yl)ethyl)pyrrolidin-3-amine dihydrochloride] | 410 pM | > 100000 pM | 3500 pM
CC(C)Oc1ccc2ccc(-c3nnc4ccc([C@@H](N5CC[C@H](N)C5)C(F)(F)F)cn34)nc2c1C1CC1 [Example 151, (S)-1-((R)-1-(3-(8-cyclopropyl-7-isopropoxyquinolin-2-yl)-[1,2,4]triazolo[4,3-a]pyridin-6-yl)-2,2,2-trifluoroethyl)pyrrolidin-3-amine dihydrochloride] | 490 pM | 85000 pM | 1000 pM
COCCOc1ccc2ccc(-c3nnc4ccc([C@@H](N5CC[C@H](N)C5)C(F)(F)F)cn34)nc2c1C1CC1 [Example 152, (S)-1-((R)-1-(3-(8-cyclopropyl-7-(2-methoxyethoxy)quinolin-2-yl)-[1,2,4]triazolo[4,3-a]pyridin-6-yl)-2,2,2-trifluoroethyl)pyrrolidin-3-amine dihydrochloride] | 250 pM | 42000 pM | 300 pM
COCCc1cc2nc(-c3nnc4ccc([C@@H](N5CC[C@H](N)C5)C(F)(F)F)cn34)ccc2cc1F [Example 153, (S)-1-((R)-2,2,2-trifluoro-1-(3-(6-fluoro-7-(2-methoxyethyl)quinolin-2-yl)-[1,2,4]triazolo[4,3-a]pyridin-6-yl)ethyl)pyrrolidin-3-amine dihydrochloride] | 190 pM | > 100000 pM | 1600 pM
N[C@H]1CCN([C@H](c2ccc3nnc(-c4ccc5cc(F)c(OC6CCOCC6)cc5n4)n3c2)C(F)(F)F)C1 [Example 156, (S)-1-((R)-2,2,2-trifluoro-1-(3-(6-fluoro-7-(tetrahydro-2H-pyran-4-yloxy)quinolin-2-yl)-[1,2,4]triazolo[4,3-a]pyridin-6-yl)ethyl)pyrrolidin-3-amine hydrochloride] | 150 pM | 38000 pM | 400 pM
N[C@H]1CCN([C@H](c2ccc3nnc(-c4ccc5cc(F)c(O)cc5n4)n3c2)C(F)(F)F)C1 [Example 157, 2-(6-((R)-1-((S)-3-aminopyrrolidin-1-yl)-2,2,2-trifluoroethyl)-[1,2,4]triazolo[4,3-a]pyridin-3-yl)-6-fluoroquinolin-7-ol hydrochloride] | 3440 pM | 239000 pM | 12000 pM
N[C@H]1CCN([C@H](c2ccc3nnc(-c4ccc5cc(F)cc(OCC6CC6)c5n4)n3c2)C(F)(F)F)C1 [Example 158, (S)-1-((R)-1-(3-(8-(cyclopropylmethoxy)-6-fluoroquinolin-2-yl)-[1,2,4]triazolo[4,3-a]pyridin-6-yl)-2,2,2-trifluoroethyl)pyrrolidin-3-amine hydrochloride] | 160 pM | 41000 pM | 1100 pM
COC[C@@H](C)Oc1cc(F)cc2ccc(-c3nnc4ccc([C@@H](N5CC[C@H](N)C5)C(F)(F)F)cn34)nc12 [Example 159, (S)-1-((R)-2,2,2-trifluoro-1-(3-(6-fluoro-8-((R)-1-methoxypropan-2-yloxy)quinolin-2-yl)-[1,2,4]triazolo[4,3-a]pyridin-6-yl)ethyl)pyrrolidin-3-amine dihydrochloride] | 140 pM | 48000 pM | 500 pM
COC[C@@H](C)Oc1cc2nc(-c3nnc4ccc([C@@H](N5CC[C@H](N)C5)C(F)(F)F)cn34)ccc2cc1F [Example 160, (S)-1-((R)-2,2,2-trifluoro-1-(3-(6-fluoro-7-((R)-1-methoxypropan-2-yloxy)quinolin-2-yl)-[1,2,4]triazolo[4,3-a]pyridin-6-yl)ethyl)pyrrolidin-3-amine dihydrochloride] | 160 pM | 46000 pM | 400 pM
N[C@H]1CCN([C@H](c2ccc3nnc(-c4ccc5cccc(C(F)(F)F)c5n4)n3c2)C(F)(F)F)C1 [Example 161, (S)-1-((R)-2,2,2-trifluoro-1-(3-(8-(trifluoromethyl)quinolin-2-yl)-[1,2,4]triazolo[4,3-a]pyridin-6-yl)ethyl)pyrrolidin-3-amine dihydrochloride] | 230 pM | > 100000 pM | 1900 pM

From patent US8889704B2 (Array BioPharma Inc., priority 2011, dated 2014)
